The results in this text go back to PubChem BioAssay AID2060325 (Molecular Pharmacology Branch, DTP, NCI, 2025).

This assay deals with SK-OV-3 multi-cell spheroids, viability. The assay is described as follows: Anticancer human tumor SK-OV-3 cell line growth inhibition [IpAb].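 As to viability, T/C: viability read after seven days of drug exposure; percent of DMSO vehicle control luminescence.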 As to conditions: for viability, T/C: stronger effect = lower value. Summed up: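 Multi-cell spheroids of 60% tumour cells, 25% HUVEC and 15% MSC in ultra-low-attachment U-bottom wells, treated with agents combined with ipatasertib or abemaciclib. Half-log ranges top out near clinical Cmax, or 10 microM when Cmax is unknown.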

Setting [1] is: curve of first compound, second compound 0.01 µM.
Setting [2] is: curve of first compound, second compound 0.0316 µM.
Where [3] appears, read: curve of first compound, second compound 0.1 µM.
[4] abbreviates: curve of first compound, second compound 0.316 µM.
Where [5] appears, read: curve of first compound, second compound 1 µM.
Where [6] appears, read: second compound 0.01 µM, first compound 0.0316 µM.
The mark [7] stands for this setting: second compound 0.01 µM, first compound 0.1 µM.
[8] abbreviates: second compound 0.0316 µM, first compound 0.0316 µM.
[9] abbreviates: second compound 0.0316 µM, first compound 0.1 µM.
[10] abbreviates: second compound 0.1 µM, first compound 0.0316 µM.
Where [11] appears, read: second compound 0.1 µM, first compound 0.1 µM.
The mark [12] stands for this setting: second compound 0.316 µM, first compound 0.0316 µM.
Setting [13] is: second compound 0.316 µM, first compound 0.1 µM.
Setting [14] is: second compound 1 µM, first compound 0.0316 µM.
[15] abbreviates: second compound 1 µM, first compound 0.1 µM.
Setting [16] is: second compound 0.1 µM, first compound 0.316 µM.
Setting [17] is: second compound 0.1 µM, first compound 1 µM.
Setting [18] is: second compound 0.1 µM, first compound 3.16 µM.
The mark [19] stands for this setting: second compound 0.1 µM, first compound 10 µM.
Where [20] appears, read: second compound 0.316 µM, first compound 0.316 µM.
Setting [21] is: second compound 0.316 µM, first compound 1 µM.
The mark [22] stands for this setting: second compound 0.316 µM, first compound 3.16 µM.
The mark [23] stands for this setting: second compound 0.316 µM, first compound 10 µM.
Where [24] appears, read: second compound 1 µM, first compound 0.316 µM.
Setting [25] is: second compound 1 µM, first compound 1 µM.
The mark [26] stands for this setting: second compound 1 µM, first compound 3.16 µM.
Where [27] appears, read: second compound 1 µM, first compound 10 µM.

Several values for one entry are separate records, joined by “and”; a condition that tells them apart may be missing. Identical values can stand only once.

As usually defined, the IC50 is the concentration that inhibits the measured activity by half. Broadly, the viability, T/C is the ratio of treated to control. `Cn1ncnc1[C@H]1c2n[nH]c(=O)c3cc(F)cc(c23)N[C@@H]1c1ccc(F)cc1` + CCN1CCN(Cc2ccc(Nc3ncc(F)c(-c4cc(F)c5nc(C)n(C(C)C)c5c4)n3)nc2)CC1: the IC50 by setting is: under setting [1], > 100 nM; under setting [2], > 100 nM; under setting [3], > 100 nM; under setting [4], > 100 nM; under setting [5], < 0.316 nM. Further, the viability, T/C was 99.8% (second compound 0.01 µM, first compound 0.000316 µM); 93.9% (second compound 0.01 µM, first compound 0.001 µM); 86.6% (second compound 0.01 µM, first compound 0.00316 µM); 86.3% (second compound 0.01 µM, first compound 0.01 µM); 83.4% under setting [6]; 60.2% under setting [7]. Further, the viability, T/C is 75.2% (second compound 0.0316 µM, first compound 0.000316 µM); 81.6% (second compound 0.0316 µM, first compound 0.001 µM); 70.7% (second compound 0.0316 µM, first compound 0.00316 µM); 63.4% (second compound 0.0316 µM, first compound 0.01 µM); 66.3% under setting [8]; 58.4% under setting [9]. The viability, T/C (second compound 0.1 µM, first compound 0.000316 µM) is 60.7%; the viability, T/C (second compound 0.1 µM, first compound 0.001 µM) is 59.5%; the viability, T/C (second compound 0.1 µM, first compound 0.00316 µM) is 56.4%; the viability, T/C (second compound 0.1 µM, first compound 0.01 µM) was 53.4%; the viability, T/C under setting [10] was 53.2%; the viability, T/C under setting [11] was 50.5%. The viability, T/C is, setting by setting: (second compound 0.316 µM, first compound 0.000316 µM) 55.8%; (second compound 0.316 µM, first compound 0.001 µM) 56.3%; (second compound 0.316 µM, first compound 0.00316 µM) 52.1%; (second compound 0.316 µM, first compound 0.01 µM) 52%; under setting [12], 51.4%; under setting [13], 53.3%. Moreover, the viability, T/C runs as follows: (second compound 1 µM, first compound 0.000316 µM) 49.5%; (second compound 1 µM, first compound 0.001 µM) 45.1%; (second compound 1 µM, first compound 0.00316 µM) 43.2%; (second compound 1 µM, first compound 0.01 µM) 46.4%; under setting [14], 45.4%; under setting [15], 43%.

As for `C=CCn1c(=O)c2cnc(Nc3ccc(N4CCN(C)CC4)cc3)nc2n1-c1cccc(C(C)(C)O)n1` + CC(C)NCC(C(=O)N1CCN(c2ncnc3c2C(C)CC3O)CC1)c1ccc(Cl)cc1, the IC50 reads like this: under setting [3], 59.1 nM; under setting [4], < 31.6 nM; under setting [5], < 31.6 nM; (curve of first compound, second compound 3.16 µM) < 31.6 nM; (curve of first compound, second compound 10 µM) < 31.6 nM. For the same molecule, the viability, T/C by setting is: under setting [10], 66.1%; under setting [11], 36.5%; under setting [16], 10%; under setting [17], 7.27%; under setting [18], 4.83%; under setting [19], 6.07%. Moreover, the viability, T/C under setting [12] was 37.5%; the viability, T/C under setting [13] is 24.6%; the viability, T/C under setting [20] is 6.94%; the viability, T/C under setting [21] is 7.44%; the viability, T/C under setting [22] is 6.92%; the viability, T/C under setting [23] was 6.99%. Moreover, the viability, T/C under setting [14] was 19.2%; the viability, T/C under setting [15] was 13.9%; the viability, T/C under setting [24] was 4.18%; the viability, T/C under setting [25] was 6.74%; the viability, T/C under setting [26] was 7.21%; the viability, T/C under setting [27] was 6.84%. In addition, the viability, T/C reads like this: (second compound 3.16 µM, first compound 0.0316 µM) 13.8%; (second compound 3.16 µM, first compound 0.1 µM) 8.92%; (second compound 3.16 µM, first compound 0.316 µM) 2.61%; (second compound 3.16 µM, first compound 1 µM) 3.21%; (second compound 3.16 µM, first compound 3.16 µM) 8.27%; (second compound 3.16 µM, first compound 10 µM) 5.57%. The viability, T/C reads like this: (second compound 10 µM, first compound 0.0316 µM) 8.99%; (second compound 10 µM, first compound 0.1 µM) 4.85%; (second compound 10 µM, first compound 0.316 µM) 1.17%; (second compound 10 µM, first compound 1 µM) 2.53%; (second compound 10 µM, first compound 3.16 µM) 4.96%; (second compound 10 µM, first compound 10 µM) 3.52%.

Take `CC(C)n1nc(-c2ccc3oc(N)nc3c2)c2c(N)ncnc21`: the viability, T/C reads like this: (compound 0.000316 µM) 90.3% and 86.6%; (compound 0.001 µM) 71.8% and 76.2%; (compound 0.00316 µM) 37.6% and 42.3%; (compound 0.01 µM) 19.2% and 21.4%; (compound 0.0316 µM) 10.8% and 11.2%; (compound 0.1 µM) 7.02% and 7.25%. The IC50 (curve of compound) is 2.13 nM and 2.54 nM.

As for `CC1(C)CCC(CN2CCN(c3ccc(C(=O)NS(=O)(=O)c4ccc(NCC5CCOCC5)c([N+](=O)[O-])c4)c(Oc4cnc5[nH]ccc5c4)c3)CC2)=C(c2ccc(Cl)cc2)C1` + CCN1CCN(Cc2ccc(Nc3ncc(F)c(-c4cc(F)c5nc(C)n(C(C)C)c5c4)n3)nc2)CC1, the IC50 is 2540 nM under setting [1]; 2450 nM under setting [2]; 722 nM under setting [3]; 316 nM under setting [4]; < 31.6 nM under setting [5]. For the same molecule, the viability, T/C is 92.7% under setting [6]; 96.9% under setting [7]; 90% (second compound 0.01 µM, first compound 0.316 µM); 71.8% (second compound 0.01 µM, first compound 1 µM); 45.3% (second compound 0.01 µM, first compound 3.16 µM); 18.2% (second compound 0.01 µM, first compound 10 µM). The viability, T/C was 78.7% under setting [8]; 74.3% under setting [9]; 79.6% (second compound 0.0316 µM, first compound 0.316 µM); 68.5% (second compound 0.0316 µM, first compound 1 µM); 44.7% (second compound 0.0316 µM, first compound 3.16 µM); 17.9% (second compound 0.0316 µM, first compound 10 µM). For the same molecule, the viability, T/C under setting [10] is 60.7%; the viability, T/C under setting [11] is 59.2%; the viability, T/C under setting [16] was 55.2%; the viability, T/C under setting [17] was 48%; the viability, T/C under setting [18] is 34.4%; the viability, T/C under setting [19] is 14.3%. Besides, the viability, T/C runs as follows: under setting [12], 55.8%; under setting [13], 53.5%; under setting [20], 52.7%; under setting [21], 39.9%; under setting [22], 31.5%; under setting [23], 10.4%. The viability, T/C runs as follows: under setting [14], 44.5%; under setting [15], 47.3%; under setting [24], 42.3%; under setting [25], 38.3%; under setting [26], 31.9%; under setting [27], 12.9%.

As for `CC(C)NCC(C(=O)N1CCN(c2ncnc3c2C(C)CC3O)CC1)c1ccc(Cl)cc1` (stereo not drawn), the viability, T/C runs as follows: (compound 0.1 µM) 69% [middle of 13 runs]; (compound 0.316 µM) 37.8% [middle of 13 runs]; (compound 1 µM) 21.5% [middle of 13 runs]; (compound 3.16 µM) 15.8% [middle of 13 runs]; (compound 10 µM) 10.5% [middle of 12 runs]. Besides, the IC50 (compound alone, run of 05/18/2021) is 202 nM [middle of 13 runs].
